Data taken from PubChem BioAssay (NCI).
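Method: 48-hour compound exposure of cells in 96-well plates, five concentrations, linear interpolation of endpoints. The concentration for full growth arrest is given as TGI.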 Where a SMILES comes first, the peptide text is derived from it. [ ]: non-standard residue; d: D form. The star is where a group is joined. Phe(4-NO2) = N[CH](Cc1ccc([N+](=O)[O-])cc1)C(=O)O; Boc = CC(C)(C)OC(=O)*; OtBu = CC(C)(C)O*

How the values were obtained:
Test in all cases: growth of human tumour cells (NCI), 48 h
[1] = tested on: MCF7 breast
[2] = tested on: MDA-N
[3] = tested on: COLO 205 colon
[4] = tested on: OVCAR-3 ovarian
[5] = tested on: NCI-H23 lung
[6] = tested on: MDA-MB-435
[7] = tested on: U251 CNS
[8] = tested on: PC-3 prostate
[9] = tested on: SR leukemia
[10] = tested on: SNB-75 CNS
[11] = tested on: HT29 colon
[12] = tested on: NCI-H522 lung
[13] = tested on: NCI-H226 lung
[14] = tested on: K-562 leukemia
[15] = tested on: SF-268 CNS
[16] = tested on: TK-10 renal
[17] = tested on: NCI-H460 lung
[18] = tested on: A549 NSCLC
[19] = tested on: UACC-62 melanoma
[20] = tested on: OVCAR-8 ovarian
[21] = tested on: T-47D breast
[22] = tested on: SK-MEL-5 melanoma
[23] = tested on: HCT-15 colon
[24] = tested on: LOX IMVI melanoma
[25] = tested on: RPMI-8226 leukemia
[26] = tested on: SK-MEL-2 melanoma
[27] = tested on: RXF 393 renal
[28] = tested on: SK-MEL-28 melanoma
[29] = tested on: DU-145 prostate
[30] = tested on: SNB-19 CNS
[31] = tested on: SF-539 CNS
[32] = tested on: HL-60(TB) leukemia
[33] = tested on: SK-OV-3 ovarian
[34] = tested on: M14 melanoma
[35] = tested on: UACC-257 melanoma
[36] = tested on: SW-620 colon
[37] = tested on: CCRF-CEM leukemia
[38] = tested on: IGROV1 ovarian
[39] = tested on: EKVX NSCLC
[40] = tested on: ACHN renal
[41] = tested on: MALME-3M melanoma
[42] = tested on: SF-295 CNS
[43] = tested on: OVCAR-5 ovarian
[44] = tested on: OVCAR-4 ovarian
[45] = tested on: NCI/ADR-RES ovarian
[46] = tested on: HOP-62 NSCLC
[47] = tested on: SN12C renal
[48] = tested on: HCC-2998 colon
[49] = tested on: KM12 colon
[50] = tested on: MOLT-4 leukemia
[51] = tested on: UO-31 renal
[52] = tested on: MDA-MB-231 breast
[53] = tested on: HCT-116 colon
[54] = tested on: CAKI-1 renal
[55] = tested on: 786-0 renal
[56] = tested on: HOP-92 NSCLC
[57] = tested on: HS 578T breast
[58] = tested on: A498 renal

With `CC(=O)NC(CCC(=O)OC(C)(C)C)C(=O)NC(CCC(=O)OC(C)(C)C)C(=O)NC(Cc1ccc([N+](=O)[O-])cc1)C(=O)NC(CCCCNC(=O)OC(C)(C)C)C(=O)NC(CCCCNC(=O)OC(C)(C)C)C(=O)NCC(=O)O` (centres undefined) (Ac-E(OtBu)E(OtBu)[Phe(4-NO2)]K(Boc)K(Boc)G-OH; configuration not given here) as the molecule, how does the TGI [1] read?
The TGI was > 100 µM.

And the TGI [2]?
The TGI was > 100 µM.

What about the TGI [3] of the same molecule?
Its TGI is > 100 µM.

What about the TGI [4] of the same molecule?
Its TGI is > 100 µM.

What about the TGI [5] of the same molecule?
The TGI was > 100 µM.

And the TGI [6]?
Its TGI is > 100 µM.

What about the TGI [7] of the same molecule?
The TGI was > 100 µM.

And the TGI [8]?
Its TGI is > 100 µM.

And the TGI [9]?
Its TGI is > 100 µM.

What about the TGI [10] of the same molecule?
The TGI was > 100 µM.

And the TGI [11]?
Its TGI is > 100 µM.

And the TGI [12]?
The TGI was > 100 µM.

What about the TGI [13] of the same molecule?
The TGI was > 100 µM.

And the TGI [14]?
Its TGI is > 100 µM.

What about the TGI [15] of the same molecule?
Its TGI is > 100 µM.

And the TGI [16]?
The TGI was > 100 µM.

What about the TGI [17] of the same molecule?
The TGI was > 100 µM.

What about the TGI [18] of the same molecule?
The TGI was > 100 µM.

What about the TGI [19] of the same molecule?
The TGI was > 100 µM.

What about the TGI [20] of the same molecule?
The TGI was > 100 µM.

And the TGI [21]?
Its TGI is > 100 µM.

What about the TGI [22] of the same molecule?
The TGI was > 100 µM.

What about the TGI [23] of the same molecule?
The TGI was > 100 µM.

What about the TGI [24] of the same molecule?
Its TGI is > 100 µM.

And the TGI [25]?
The TGI was > 100 µM.

What about the TGI [26] of the same molecule?
The TGI was > 100 µM.

What about the TGI [27] of the same molecule?
The TGI was > 100 µM.

And the TGI [28]?
The TGI was > 100 µM.

What about the TGI [29] of the same molecule?
The TGI was > 100 µM.

And the TGI [30]?
The TGI was > 100 µM.

And the TGI [31]?
The TGI was > 100 µM.

And the TGI [32]?
Its TGI is > 100 µM.

What about the TGI [33] of the same molecule?
The TGI was > 100 µM.

What about the TGI [34] of the same molecule?
Its TGI is 53.5 µM.

And the TGI [35]?
Its TGI is > 100 µM.

What about the TGI [36] of the same molecule?
Its TGI is > 100 µM.

And the TGI [37]?
Its TGI is > 100 µM.

What about the TGI [38] of the same molecule?
Its TGI is > 100 µM.

What about the TGI [39] of the same molecule?
Its TGI is > 100 µM.

What about the TGI [40] of the same molecule?
Its TGI is > 100 µM.

What about the TGI [41] of the same molecule?
Its TGI is > 100 µM.

What about the TGI [42] of the same molecule?
Its TGI is > 100 µM.

What about the TGI [43] of the same molecule?
Its TGI is > 100 µM.

And the TGI [44]?
The TGI was > 100 µM.

What about the TGI [45] of the same molecule?
The TGI was > 100 µM.

What about the TGI [46] of the same molecule?
Its TGI is > 100 µM.

And the TGI [47]?
Its TGI is > 100 µM.

And the TGI [48]?
The TGI was > 100 µM.

And the TGI [49]?
Its TGI is > 100 µM.

And the TGI [50]?
The TGI was > 100 µM.

And the TGI [51]?
The TGI was > 100 µM.

And the TGI [52]?
The TGI was > 100 µM.

And the TGI [53]?
The TGI was > 100 µM.

And the TGI [54]?
The TGI was > 100 µM.

And the TGI [55]?
The TGI was > 100 µM.

What about the TGI [56] of the same molecule?
Its TGI is > 100 µM.

Which results are given for `Cc1ccc(Nc2nc(C)c(C(=O)CC(=O)C(=O)Nc3ccc(Cl)cc3)s2)cc1`?
TGI [1]: > 100 µM; TGI [2]: > 100 µM; TGI [3]: > 100 µM; TGI [4]: > 100 µM; TGI [5]: > 100 µM; TGI [6]: > 100 µM; TGI [7]: > 100 µM; TGI [8]: > 100 µM; TGI [9]: > 100 µM; TGI [10]: > 100 µM; TGI [12]: > 100 µM; TGI [14]: > 100 µM; TGI [15]: > 100 µM; TGI [16]: > 100 µM; TGI [17]: > 100 µM; TGI [57]: > 100 µM; TGI [18]: > 100 µM; TGI [19]: > 100 µM; TGI [21]: > 100 µM; TGI [22]: > 100 µM; TGI [23]: > 100 µM; TGI [24]: > 100 µM; TGI [25]: > 100 µM; TGI [26]: > 100 µM; TGI [27]: > 100 µM; TGI [28]: > 100 µM; TGI [29]: > 100 µM; TGI [30]: > 100 µM; TGI [31]: > 100 µM; TGI [32]: > 100 µM; TGI [33]: > 100 µM; TGI [34]: > 100 µM; TGI [35]: > 100 µM; TGI [36]: > 100 µM; TGI [37]: > 100 µM; TGI [38]: > 100 µM; TGI [39]: > 100 µM; TGI [40]: > 100 µM; TGI [41]: > 100 µM; TGI [42]: > 100 µM; TGI [58]: > 100 µM; TGI [43]: > 100 µM; TGI [46]: > 100 µM; TGI [47]: > 100 µM; TGI [48]: > 100 µM; TGI [49]: > 100 µM; TGI [50]: > 100 µM; TGI [51]: > 100 µM; TGI [52]: > 100 µM; TGI [53]: > 100 µM; TGI [54]: > 100 µM; TGI [55]: > 100 µM; TGI [56]: > 100 µM
